Legend:
HepG2 cells [1] = assay: Resazurin reduction cytotoxicity assay, HepG2; format: cell-based; settings: HepG2, 24 h; for Top (maximal effect): maximum cell death of fitted curve; for EC50: Homo sapiens, cell death curves 0–2000 µM, read-out: EC50 (half-maximum-effect concentrations)
Experimental: HepG2 cells were acquired from the American Type Culture Collection (Manassas, VA, USA). Cells were cultured in 75 cm^2 flasks using DMEM—high glucose supplemented with a 10% heat inactivated FBS and 1% penicillin/streptomycin mixture, and maintained in a 5% CO2–95% air atmosphere, at 37 °C, until 80% confluence. Cells were routinely subcultured using trypsin-EDTA and, to avoid phenotypic alterations, used between passages 16 and 22. In all experiments, the cells were seeded at a density of 250,000 cells/cm^2 and used 24 h after seeding.
Neutral red uptake and resazurin reduction assays were performed after exposure of differentiated SH-SY5Y and HepG2 cells to the drugs under study. To obtain a concentration–response curve, a broad concentration range (0–2000 µM) was investigated, and cytotoxicity was evaluated 24 h after exposure in 96-well cell culture plates. As previously described, neutral red uptake assay is based on the incorporation of neutral red dye into the lysosomes of viable cells and the amount of dye incorporated represents the cells’ lysosomal functionality, and resazurin reduction assay is based on the irreversible reduction of resazurin dye to the fluorescent resorufin product by metabolically active cells.
Briefly, 24 h after being exposed to different concentrations of the compounds, differentiated SH-SY5Y cells were incubated with either neutral red (50 µg/mL) or resazurin (10 µg/mL) solutions for 90 min, at 37 °C, in a 5% CO2–95% air atmosphere. For HepG2 cells, 24 h after the exposure to the tested drugs, the cells were incubated with either neutral red (50 µg/mL) or resazurin (10 µg/mL) solutions for 45 and 60 min, respectively, at 37 °C, in a 5% CO2–95% air atmosphere.
In the neutral red uptake assay, at the end of the incubation period, the cell culture medium was removed and a solution of absolute ethyl alcohol/distilled water (1:1) with 5% acetic acid was added to extract the dye absorbed only by the viable cells. The absorbance was measured at 540 nm in a multi-well plate reader (PowerWaveX BioTek Instruments, Winooski, VT, USA). In the resazurin assay, at the end of the incubation period, the fluorescence was measured at 530 nm excitation and 590 nm emission wavelengths in a multi-well plate reader (PowerWaveX BioTek Instruments, Winooski, VT, USA).
The results were expressed as a percentage of control cells. At least four independent experiments were performed, in triplicate. For differentiated SH-SY5Y cells, the neutral red uptake assay was identified as the most sensitive assay and, therefore, used for the subsequent experiments. On the other hand, for HepG2 cells, the resazurin reduction assay was identified as the most sensitive assay and, therefore, used for the subsequent experiments.

hMAO-A = target: T1, hMAO-A (Homo sapiens, UniProt P21397); assay: hMAO-A inhibitory activity assay (kynuramine); format: biochemical; settings: read-out: % inhibition at 10 µM hMAO-A, kynuramine substrate
T1 construct: purchased Sigma Aldrich; host or cells: insect cells (BTI-TN-5B1-4), recombinant baculovirus
T1 sequence (P21397 1-527): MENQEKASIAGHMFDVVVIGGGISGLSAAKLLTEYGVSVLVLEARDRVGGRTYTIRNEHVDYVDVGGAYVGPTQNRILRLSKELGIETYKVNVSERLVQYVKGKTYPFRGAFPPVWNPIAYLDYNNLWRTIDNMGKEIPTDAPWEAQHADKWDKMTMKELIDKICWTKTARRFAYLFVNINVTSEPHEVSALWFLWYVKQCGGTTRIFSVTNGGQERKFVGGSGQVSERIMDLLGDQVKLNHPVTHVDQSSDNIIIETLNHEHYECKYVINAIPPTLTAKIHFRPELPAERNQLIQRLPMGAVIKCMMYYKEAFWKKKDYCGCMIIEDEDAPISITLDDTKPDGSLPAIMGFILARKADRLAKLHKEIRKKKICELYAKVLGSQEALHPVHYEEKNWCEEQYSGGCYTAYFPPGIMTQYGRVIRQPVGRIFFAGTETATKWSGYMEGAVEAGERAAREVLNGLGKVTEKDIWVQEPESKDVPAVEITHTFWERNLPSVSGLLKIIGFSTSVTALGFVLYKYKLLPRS
Experimental: The hMAO inhibitory activities were assessed in microsomal MAO isoforms, prepared from insect cells (BTI-TN-5B1-4) infected with recombinant baculovirus containing cDNA inserts for hMAO-A or hMAO-B, by measuring the enzymatic conversion rates of kynuramine into 4-hydroxyquinoline. […] All assays were performed in sodium phosphate buffer solution 50 mM pH 7.4.
The percentages of MAO inhibition of each compound were determined from three independent experiments performed in triplicate.

[2] = test system: differentiated SH-SY5Y cells; assay: Effect of MAO inhibitors on drug cytotoxicity (neutral red uptake), differentiated SH-SY5Y; format: cell-based; settings: 24 h; for change of drug cytotoxicity with rasagiline (neutral red uptake): 1 µM rasagiline (MAO-B inhibitor), drug concentrations as given in the source
Experimental: MAO inhibition was used to elucidate the impact of MAO-A and MAO-B in the cytotoxicity of the tested drugs. […] The drugs’ cytotoxicity was then assessed through the neutral red uptake assay and the results were expressed as percentage of control cells. At least four independent experiments were performed, in triplicate.

HepG2 cells [3] = assay: Effect of CYP inhibitors on drug cytotoxicity (resazurin reduction), HepG2; format: cell-based; settings: HepG2, 24 h, drug concentrations as given in the source; for change of resazurin reduction with ketoconazole vs drug alone: 1 μM ketoconazole; for change of resazurin reduction with quinidine vs drug alone: 10 μM quinidine; for change of resazurin reduction with ABT vs drug alone: 1000 μM ABT
Experimental: Analogously to the studies performed in the neuronal model, the impact of the CYP-mediated metabolism on the cytotoxicity of the tested drugs was also evaluated, in HepG2 cells, 24 h after exposure to the drugs in the presence or absence of different CYP inhibitors: 1000 μM ABT, 10 μM quinidine or 1 μM ketoconazole.
CYP inhibition assay was used to evaluate the drugs’ potential to inhibit drug-metabolizing enzymes. Accordingly, SH-SY5Y and HepG2 cells were seeded in 96-well cell culture plates and pre-incubated with 1000 µM ABT—a non-isoform specific CYP450 inhibitor, 10 µM quinidine—a CYP2D6 inhibitor or 1 µM ketoconazole—a CYP3A4 inhibitor. After 1 h, the drugs (0–500 µM) were co-incubated with the inhibitors for 24 h, at 37 °C, in a 5% CO2–95% air atmosphere. The drugs’ cytotoxicity was then assessed through the neutral red uptake assay for differentiated SH-SY5Y cells, and through the resazurin reduction assay for HepG2 cells, and the results were expressed as percentage of control cells. At least four independent experiments were performed, in triplicate.

[4] = 1 µM clorgyline (MAO-A inhibitor), drug 50-250 µM

SMILES: COc1ccccc1CNCCc1cc(OC)c(OC)c(OC)c1 [Mescaline-NBOMe, 3,4,5-Trimethoxy-N-(2-methoxybenzyl)-β-phenethylamine]
- Bottom (baseline) (HepG2 cells [1]): −0.3754
- Hill Slope (HepG2 cells [1]): 3.411
- Top (maximal effect) (HepG2 cells [1]): 87.43
- EC50 (HepG2 cells [1]): 426 µM
- inhibition at 10 µM (hMAO-A): 3.9%
- change of drug cytotoxicity with clorgyline (neutral red uptake) [2, 4]: significantly increased the cytotoxicity
- change of drug cytotoxicity with clorgyline (neutral red uptake) ([2]; 1 µM clorgyline, 500 µM drug concentration): significant increase in cell viability
- change of drug cytotoxicity with rasagiline (neutral red uptake) [2]: significantly increased the cytotoxicity
- change of resazurin reduction with ketoconazole vs drug alone (HepG2 cells [3]): no significant changes in resazurin reduction
- change of resazurin reduction with quinidine vs drug alone (HepG2 cells [3]): no significant changes in resazurin reduction
- change of resazurin reduction with ABT vs drug alone (HepG2 cells [3]): small but significant decrease in resazurin reduction

SMILES: COc1cc(CCN)cc(OC)c1OC.Cl [Mescaline, 3,4,5-Trimethoxyphenethylamine hydrochloride]
- cytotoxicity (in words) (HepG2 cells [1]; 0–2000 µM): not causing a significant cytotoxicity
- inhibition at 10 µM (hMAO-A): 2.5%
- change of drug cytotoxicity with clorgyline (neutral red uptake) [2, 4]: significantly increased the cytotoxicity
- change of resazurin reduction with ketoconazole vs drug alone (HepG2 cells [3]): No significant changes
- change of resazurin reduction with quinidine vs drug alone (HepG2 cells [3]): No significant changes
- change of resazurin reduction with ABT vs drug alone (HepG2 cells [3]): No significant changes

SMILES: COc1cc(CCN)c(OC)cc1Br [2C-B, 4-Bromo-2,5-dimethoxy-β-phenethylamine]
- Bottom (baseline) (HepG2 cells [1]): 1.072
- Hill Slope (HepG2 cells [1]): 3.731
- Top (maximal effect) (HepG2 cells [1]): 89.29
- EC50 (HepG2 cells [1]): 206 µM
- inhibition at 10 µM (hMAO-A): 17.5%
- change of drug cytotoxicity with rasagiline (neutral red uptake) [2]: significantly increased the cytotoxicity
- change of resazurin reduction with ketoconazole vs drug alone (HepG2 cells [3]): significant decrease in the cells’ metabolic capacity
- change of resazurin reduction with ABT vs drug alone (HepG2 cells [3]): small but significant decrease in resazurin reduction

SMILES: COc1cc([N+](=O)[O-])c(OC)cc1CCNCc1ccccc1OC [25N-NBOMe, 4-Nitro-2-dimethoxy-N-(2-methoxybenzyl)-β-phenethylamine]
- Bottom (baseline) (HepG2 cells [1]): 3.464
- Hill Slope (HepG2 cells [1]): 5.089
- Top (maximal effect) (HepG2 cells [1]): 87.26
- EC50 (HepG2 cells [1]): 99.7 µM
- inhibition at 10 µM (hMAO-A): 8.9%
- change of drug cytotoxicity with clorgyline (neutral red uptake) [2, 4]: significantly increased the cytotoxicity
- change of drug cytotoxicity with rasagiline (neutral red uptake) [2]: significant increase in cell viability
- change of resazurin reduction with ketoconazole vs drug alone (HepG2 cells [3]): no significant changes in resazurin reduction
- change of resazurin reduction with quinidine vs drug alone (HepG2 cells [3]): no significant changes in resazurin reduction
- change of resazurin reduction with ABT vs drug alone (HepG2 cells [3]): small but significant decrease in resazurin reduction

SMILES: COc1cc(CCNCc2ccccc2OC)c(OC)cc1Br [25B-NBOMe, 4-Bromo-2,5-dimethoxy-N-(2-methoxybenzyl)-β-phenethylamine]
- Bottom (baseline) (HepG2 cells [1]): 4.552
- Hill Slope (HepG2 cells [1]): 3.079
- Top (maximal effect) (HepG2 cells [1]): 89.49
- EC50 (HepG2 cells [1]): 32.8 µM
- inhibition at 10 µM (hMAO-A): 15%
- change of drug cytotoxicity with rasagiline (neutral red uptake) [2]: significant increase in cell viability
- change of resazurin reduction with ketoconazole vs drug alone (HepG2 cells [3]): significant decrease in the cells’ metabolic capacity
- change of resazurin reduction with ABT vs drug alone (HepG2 cells [3]): small but significant decrease in resazurin reduction

SMILES: COc1cc([N+](=O)[O-])c(OC)cc1CCN [2C-N, 2,5-dimethoxy-4-nitrophenethylamine]
- Bottom (baseline) (HepG2 cells [1]): 0.2545
- Hill Slope (HepG2 cells [1]): 2.334
- Top (maximal effect) (HepG2 cells [1]): ≈100
- EC50 (HepG2 cells [1]): 834 µM
- inhibition at 10 µM (hMAO-A): 5.8%
- change of drug cytotoxicity with rasagiline (neutral red uptake) [2]: significantly increased the cytotoxicity
- change of resazurin reduction with ketoconazole vs drug alone (HepG2 cells [3]): significant increase in the metabolic capacity of cells
- change of resazurin reduction with quinidine vs drug alone (HepG2 cells [3]): significant increase in the metabolic capacity of cells

— paper PMC10458253, “Unraveling the In Vitro Toxicity Profile of Psychedelic 2C Phenethylamines and Their N-Benzylphenethylamine (NBOMe) Analogues” (Pharmaceuticals, 2023)
